In patent US20260258368A1, “METABOLIC SELECTION FOR GLYCOGEN-STORING CELLS IN VITRO” (The Board of Trustees of the Leland Stanford Junior …, priority 2023, published 2026):

Assays:
Assay in all cases: Poly(I:C) treatment, interferon-stimulated gene expression (qPCR, RNA-seq)
Details in all cases: 50 μg/mL poly(I:C), 1 day
[1] = tested on: primary adult human hepatocytes (Lonza, Gibco); format: cell-based
Excerpt: (§1) RNA extraction and bulk-population RNA-seq. Cells were lysed using Zymo RNA lysis buffer and total RNA was extracted from cells using the Zymo Quick RNA kit per the manufacturer's instructions. High-quality RNA with RNA integrity number (RIN)>7 was used for library construction. For each cell-type, we included 2-3 technical replicates, generally defined as different wells of the same cell-type generated in the same differentiation experiment. In one experiment, 46 RNA-seq libraries were multiplexed and then sequenced on 2 lanes of the Illumina NovaSeq 6000 S4 sequencer by Novogene to generate 150-bp paired-end reads. In a second experiment, 36 RNA-seq libraries were multiplexed and then sequenced on 1 lane of the NovaS4 sequencer by Novogene to generate 150-bp paired-end reads.
Poly(I:C) treatment. HepG2 cells, HuH7 cells, metabolically-selected H1 hPSC-and H7 hPSC-derived hepatocytes, and primary human hepatocytes (Lonza and Gibco) were thawed in a 37° C. water bath for 3 minutes. After thawing, HepG2, HuH7, and hPSC-derived hepatocytes were quenched in warm DMEM/F12 to dilute the cryopreservation solution. After thawing, primary human hepatocytes, obtained from either Lonza or Gibco, were respectively quenched in MCHT50 and CHRM to dilute the cryopreservation solution. Thawed cells were centrifuged at 1500 rpm for 5 mins and the supernatant was discarded, leaving the cell pellets. […]

HepG2 liver cancer cells = format: cell-based, human
Excerpt: as §1
(§2) Poly(I:C) treatment. HepG2 cells, HuH7 cells, metabolically-selected H1 hPSC-and H7 hPSC-derived hepatocytes, and primary human hepatocytes (Lonza and Gibco) were thawed in a 37° C. water bath for 3 minutes. After thawing, HepG2, HuH7, and hPSC-derived hepatocytes were quenched in warm DMEM/F12 to dilute the cryopreservation solution. After thawing, primary human hepatocytes, obtained from either Lonza or Gibco, were respectively quenched in MCHT50 and CHRM to dilute the cryopreservation solution. Thawed cells were centrifuged at 1500 rpm for 5 mins and the supernatant was discarded, leaving the cell pellets. The cell pellets were resuspended in the aforementioned hepatocyte maintenance media (Lonza hepatocyte culture medium supplemented with 10 μM Dexamethasone, 10 μM Forskolin, 2 μM RO4929097, 200 μg/ml AA2P, 10 μg/ml Insulin, and 1 μM Thiazovivin [DFRAIT]). For each cell-type, ~400,000 cells were plated per well of 24-well plate that had been coated with collagen 1 (Corning Biocoat). For hPSC-derived hepatocytes, the collagen 1-coated wells were briefly treated with Geltrex prior to plating cells. The media was replenished every day for 2 days and on the third day, hepatocyte maintenance media+ DFRAIT+50 μg/ml poly(I:C) was added for 24 hours. Cells were then lysed with RNA lysis buffer (Zymo) and processed with an RNA extraction kit (Zymo) to extract RNA for qPCR and RNA-seq.

HuH7 liver cancer cells = format: cell-based, human
Excerpt: as §1, §2

[2] = tested on: hPSC-derived hepatocytes (H1 and H7 hPSC lines); format: cell-based, human
Excerpt: as §1, §2

## poly(I:C)
[1]
  ISG and inflammatory cytokine expression change (RNA-seq): significant ISG and inflammatory cytokine upregulation
[1]; two hepatocyte sources
  upregulation of interferon-stimulated genes (qPCR): upregulated ISGs
HepG2 liver cancer cells
  ISG and inflammatory cytokine expression change (RNA-seq): minimal changes
  upregulation of interferon-stimulated genes (qPCR): largely failed to upregulate
HuH7 liver cancer cells
  ISG and inflammatory cytokine expression change (RNA-seq): minimal changes
  upregulation of interferon-stimulated genes (qPCR): largely failed to upregulate
[2]
  ISG and inflammatory cytokine expression change (RNA-seq): significant ISG and inflammatory cytokine upregulation
[2]; H1- and H7-derived hepatocytes
  induction of interferon-stimulated genes MX1, VIPERIN, IFIT1, IFIT2, IFIT3, OAS1, OASL, ISG15 (qPCR): strongly induced
